These are literature values, as cited in patent US8378072B2, “Methods for designing and synthesizing directed sequence polymer compositions via the directed expansion of epitope permeability” (Declion Pharmaceuticals, Inc., priority 2006, dated 2013).

The conditions of series [1]: YFAK input ratio of 1:1:1:1 compared to input ratio of 1:1:10:6; Rasmussen et al.
For series [2] the following is noted: compared with COP-1.
For series [3] the following is noted: Raz et al., Lancet 2001.
For series [4] the following is noted: limited human trials; Kim et al. Clinical Immunology 2002.

As to “YFAK: random sequence polymer consisting of the amino acids Y, F, A, and K”, in series [1], the “eliciting a recall response” value is on record as “not effective”. In addition, the “efficacy in EAE” value in series [2] was “better efficacy”.

Regarding VLGGGVALLRVIPALDSLTPANED [p277], the “activity in the context of Type I diabetes” value in series [3] was “apparent activity”.

Turning to “AKPVVHLFANIVTPRTP [altered peptide ligand (APL) made from MBP83-99, placed into limited human trials]”, in series [4], the “clinical efficacy by evaluation using MRI” value is recorded as “clinically ineffective”.
